Square brackets hold non-standard residues; d marks the D form. Peptide text beside a SMILES is read from it. Ala(indol-4-yl) = N[C@@H](Cc1cccc2[nH]ccc12)C(=O)O

Results on one compound are retold here after patent US7098307B2, “Neo-tryptophan” (Mayo Foundation for Medical Education and Research, priority 1998, dated 2006).

One data set has as its target α2-adrenergic receptors. The data set is described as follows: Radiolabeled competitive binding, human brain tissue, adrenergic α2.
A short description of data set [1]: Degradation in rat plasma (HPLC peak area). The settings on record: 25% plasma, 37° C., 0.5 mg/mL polypeptide, read-out: half-time, Plasma Rat (converted). In kind it is in vitro ADME. An excerpt: (§1) For the degradation studies, data were plotted in linear form as a semi-log plot with SigmaPlot for Windows Version 4.00. Linear regression on these plots provided the parameters used to calculate the half-time (t1/2) for degradation of each polypeptide. The correlation coefficient (R) for the linear regression was taken as a measure of the goodness-of-fit.

Data set [2] in a line: Hot plate test (antinociception, % MPE) in rats.
For data set [3], the target named is T1, human NTR1 (Homo sapiens, UniProt P30989).
T1 construct: expressed in transfected cells; host or cells: CHO-K1
The data set is described as follows: PI turnover ([3H]IP1) in intact CHO-K1 cells, human NTR1. In kind it is cell-based. How it is done:
To measure PI turnover, intact CHO-K1 cells were harvested at about 80% confluency. Cells were detached from the petri plates by removal of culture medium followed by incubation of the cellular monolayer for 20 minutes at 37° C. with gentle shaking in a modified Puck's D1 solution containing 2 mM EGTA. […] Briefly, intact CHO cells were prelabeled with D-myo-[^3H]inositol (18.3 Ci/mmol) in the presence of lithium chloride (final concentration, 10 mM). […] For the experiments described herein, the stimulation time was 30 minutes, and the number of CHO cells per assay tube was 1.5×10^5.

The nature of data set [4]: Degradation in rat intestinal preparation. In kind it is in vitro ADME. The following applies: pH 7.4, 37° C., read-out: half-time, Rat Intestinal Preparation (converted). How it is done: For intestinal preparations, rats were sacrificed by decapitation, and the small intestines removed. The tissue was washed with ice-cold PBS (10 mM, pH 7.4). About […] of intestinal tissue was added to about 10 mL of PBS and homogenized using a Brinkman polytron homogenizer (setting 6). After homogenization, 10 mL of PBS was added to 10 mL of the intestinal homogenate. […] The supernatant was removed and stored at −20° C. until testing. Immediately before incubation with the polypeptide, the intestinal preparation was filtered through a 0.2 μm filter. Testing procedures were similar to those for the plasma tests.
as §1

The target of another data set is T2, dopamine D2 receptors (Homo sapiens, UniProt P14416).
T2 construct: Human brain tissue; from tissue; host or cells: human brain tissue
Kind of data set: Radiolabeled competitive binding, human brain tissue, dopamine.

The nature of data set [5]: Body temperature (hypothermia) in rats.
Data set [6] in a line: Degradation in human plasma (HPLC peak area). In kind it is in vitro ADME. The settings on record: 25% plasma, 37° C., 0.5 mg/mL polypeptide.
From the text: as §1

Another data set has as its target adrenergic α1 receptors. Kind of data set: Radiolabeled competitive binding, human brain tissue, adrenergic α1. The settings on record: read-out: Kd adrenergic α1 receptors.
Data set [7] addresses T1, human NTR1. The data set is described as follows: Competition binding with [3H]NT, membranes of CHO-K1 cells transfected with human NTR1. As for the experimental part:
(§2) CHO-K1 cells were stably transfected with nucleic acid encoding either the human NTR1 or the rat NTR1, and cultured in 150 mm petri plates with 35 mL of Dulbecco-modified Eagle's medium containing 100 μM minimal essential medium nonessential amino acids (GIBCO) supplemented with 5% (v/v) FetalClone II bovine serum product (Hyclone Labs, Logan, Utah). CHO cells (subculture 9–19) were harvested at confluency. Briefly, the medium from each plate was removed by aspiration, and the cells washed with 6 mL of 50 mM Tris-HCl (pH 7.4) and resuspended in 5–10 mL of Tris-HCl by scraping the cells with a rubber spatula. The resuspended cells were placed into a centrifuge tube and collected by centrifugation at 300× g for five minutes at 4° C. in a GPR centrifuge (Beckman Instruments, Fullerton, Calif.). The cellular pellet (in 50 mM Tris-HCl, 1 mM EDTA, pH 7.4) was stored at […] until radioligand binding was performed.
(§3) The supernatant was decanted and discarded, and the cellular pellet was resuspended in 2 mL of Tris-HCl, 1 mM EDTA (pH 7.4) followed by homogenization with a Brinkmann Polytron at setting 6 for ten seconds. Centrifugation was repeated as above and the supernatant was decanted and discarded. The resulting final cellular pellet was resuspended in 50 mM Tris-HCl, lmM EDTA, 0.1% bovine serum albumin, and 0.2 mM bacitracin.
(§4) Incubation was at 20° C. for 30 minutes. Each reaction was terminated by addition of cold 0.9% NaCl (5×1.5 mL) followed by rapid filtration through a GF/B filter strip that had been pretreated with 0.2% polyethylenimine.

Another data set addresses Muscarinic. The data set is described as follows: Radiolabeled competitive binding, human brain tissue, muscarinic.
Another data set addresses T3, rat NTR1 (Rattus norvegicus, UniProt P20789).
T3 construct: expressed in transfected cells; host or cells: CHO-K1
The data set is described as follows: Competition binding with [3H]NT, membranes of CHO-K1 cells transfected with rat NTR1. How it is done: as §2, §3, §4

In another data set the target is 5HT2A receptor (Homo sapiens, UniProt P28223). The data set is described as follows: Competitive binding with [3H]ketanserin, human brain tissue. The settings on record: human brain tissue.
[8] abbreviates: intraperitoneal administration (NT64L 1 mg/kg).

As to `CC[C@H](C)[C@H](NC(=O)[C@H](Cc1cccc2[nH]ccc12)NC(=O)[C@@H]1CCCN1C(=O)[C@H](CCCNC(=N)N)NC(=O)[C@H](N)CCCCN)C(=O)N[C@@H](CC(C)C)C(=O)O` [NT67L] (H-[dK]RP[Ala(indol-4-yl)]IL-OH; N-terminus and C-terminus assumed), the Kd was more than 100000 nM at α2-adrenergic receptors; more than 100000 nM on dopamine D2 receptors; 6900 nM at adrenergic α1 receptors; 0.61 ± 0.06 nM on human NTR1 [7]; more than 100000 nM on Muscarinic; 0.21 ± 0.02 nM at rat NTR1. In addition, the half-life at 0.5 mg/mL in data set [1] was 130 h; in data set [6] (human, read-out: half-time, Plasma Human (converted)) it was 96 h. The “Peak % MPE” value in data set [2] (1 mg/kg intraperitoneal, rats) is on record as 70% @. For the same compound, in data set [2] (1 mg/kg intraperitoneal, rats), the “time of Peak % MPE” value is recorded as 90 min. Further, in data set [2] (setting [8]), the “induction of antinociception (hot plate)” value is reported as “did induce”. Also, on human NTR1 [3], a half-maximal effect (EC50) was put at 0.83 nM. Moreover, the half-life in data set [4] was 0.77 h. The “Peak BT change” value in data set [5] (1 mg/kg intraperitoneal, rats) is recorded as −1.8 @ ° C. Moreover, in [5] (1 mg/kg intraperitoneal, rats), the “time of Peak BT change” value is 120 min. In data set [5] (setting [8]), the induction of hypothermia result is recorded as “did induce”. The “half-time, Plasma Human” value in [6] is on record as “about 96 hours”. The “reduction in binding affinity compared to NT64L” value on human NTR1 [7] (NT receptor binding) was “about six fold lower”. The “competition with labeled ketanserin for binding at the 5HT2A receptor” value on 5HT2A receptor was “found to compete”.
